Measured values: patent publication US20240051931A1, “HDAC INHIBITORS” (University of Pittsburgh - Of the Commonwealth System of …, priority 2020, published 2024)

What was measured:
PanHDAC = PanHDAC activity at fixed concentration (Table 2); assay type: biochemical; set-up: unit not given here; details: compound at 1 uM
HDAC 6 = target: T1, HDAC 6 (Homo sapiens, UniProt Q9UBN7); assay: HDAC 6 activity at fixed concentration (Table 2); assay type: biochemical; set-up: unit not given here; details: compound at 50 nM
T1 sequence (Q9UBN7 1-1215): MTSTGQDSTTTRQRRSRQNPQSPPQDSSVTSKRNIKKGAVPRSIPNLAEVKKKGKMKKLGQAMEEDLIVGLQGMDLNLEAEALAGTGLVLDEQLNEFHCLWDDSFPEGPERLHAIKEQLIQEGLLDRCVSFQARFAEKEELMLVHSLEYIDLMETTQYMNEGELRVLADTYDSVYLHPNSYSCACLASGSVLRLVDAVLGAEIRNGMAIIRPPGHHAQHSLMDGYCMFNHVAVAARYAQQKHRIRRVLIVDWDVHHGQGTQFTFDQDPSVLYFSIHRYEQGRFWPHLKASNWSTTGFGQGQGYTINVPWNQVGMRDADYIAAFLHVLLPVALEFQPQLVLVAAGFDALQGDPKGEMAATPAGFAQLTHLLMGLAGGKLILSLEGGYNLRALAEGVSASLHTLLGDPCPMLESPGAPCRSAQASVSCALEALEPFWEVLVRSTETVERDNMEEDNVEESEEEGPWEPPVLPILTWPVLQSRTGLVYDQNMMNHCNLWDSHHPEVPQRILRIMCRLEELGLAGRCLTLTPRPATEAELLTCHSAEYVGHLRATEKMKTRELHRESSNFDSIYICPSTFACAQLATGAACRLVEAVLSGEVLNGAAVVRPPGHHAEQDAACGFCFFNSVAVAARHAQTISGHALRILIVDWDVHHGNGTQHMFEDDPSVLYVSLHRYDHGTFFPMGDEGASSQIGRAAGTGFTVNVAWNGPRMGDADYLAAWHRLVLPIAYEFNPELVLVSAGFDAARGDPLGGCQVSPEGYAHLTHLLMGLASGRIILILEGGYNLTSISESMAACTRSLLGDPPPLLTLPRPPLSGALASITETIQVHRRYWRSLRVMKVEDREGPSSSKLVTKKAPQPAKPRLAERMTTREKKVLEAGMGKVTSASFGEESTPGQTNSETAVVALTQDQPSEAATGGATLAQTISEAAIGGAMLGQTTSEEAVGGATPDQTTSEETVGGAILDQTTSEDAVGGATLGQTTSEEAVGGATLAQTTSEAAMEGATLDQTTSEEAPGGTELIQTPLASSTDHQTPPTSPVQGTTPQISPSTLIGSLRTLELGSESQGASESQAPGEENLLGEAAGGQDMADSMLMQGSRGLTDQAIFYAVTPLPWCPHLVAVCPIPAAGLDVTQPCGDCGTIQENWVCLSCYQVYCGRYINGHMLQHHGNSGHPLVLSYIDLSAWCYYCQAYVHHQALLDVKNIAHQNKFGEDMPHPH

Row | Compound | PanHDAC at 1 uM (PanHDAC) | HDAC 6 at 50 nM (HDAC 6)
1 | O=C(NO)C1CCc2cc(Cl)ccc2O1 (stereo not shown) [Compound 1-1] | 0 | 33
2 | O=C(NO)C1CCc2cccc(NS(=O)(=O)c3ccc(F)cc3)c2O1 (stereo not shown) [Compound 1-2] | 0 | 5
3 | O=C(NO)[C@@H]1CCc2ccccc2O1 [Compound 1-3] | 0 | 46
4 | O=C(NO)[C@H]1CCc2ccccc2O1 [Compound 1-4] | 0 | 47
5 | COc1ccc(C(=O)Nc2ccc3c(c2)CCC(C(=O)NO)O3)cc1 (stereo not shown) [Compound 1-5] | 0 | 29
6 | O=C(Nc1ccc2c(c1)CCC(C(=O)NO)O2)c1ccc(S(F)(F)(F)(F)F)cc1 (stereo not shown) [Compound 1-6] | 0 | 41
7 | O=C(NO)C1CCc2cc(CCCOc3ccc(F)cc3)ccc2O1 (stereo not shown) [Compound 1-7] | 0 | 35
8 | O=C(Nc1cccc2c1OC(C(=O)NO)CC2)OCc1ccccc1 (stereo not shown) [Compound 1-8] | 0 | 0
9 | O=C(Nc1ccc2c(c1)CCC(C(=O)NO)O2)OCc1ccccc1 (stereo not shown) [Compound 1-9] | 0 | 50
10 | O=C(NO)C1CCc2cc(C#CCOc3ccc(F)cc3)ccc2O1 (stereo not shown) [Compound 1-10] | 0 | 42
11 | C#Cc1ccc2c(c1)CCC(C(=O)NO)O2 (stereo not shown) [Compound 1-11] | 3 | 25
12 | O=C(NCc1ccccc1)Nc1cccc2c1OC(C(=O)NO)CC2 (stereo not shown) [Compound 1-12] | 0 | 28
13 | O=C(Nc1cccc2c1OC(C(=O)NO)CC2)OCc1ccccc1Cl (stereo not shown) [Compound 1-13] | 0 | 23
14 | O=C(NO)C1CCc2cc(NS(=O)(=O)c3cc(Cl)cc(Cl)c3)ccc2O1 (stereo not shown) [Compound 1-14] | 21 | 0
15 | O=C(NCc1ccc(Cl)c(C(F)(F)F)c1)Nc1ccc2c(c1)CCC(C(=O)NO)O2 (stereo not shown) [Compound 1-15] | 0 | 26
16 | O=C(NO)C1CCc2cc(CCCOC(=O)N3CCc4ccccc4C3)ccc2O1 (stereo not shown) [Compound 1-16] | 0 | 73
17 | O=C(NO)C1CCc2ccc(O)cc2O1 (stereo not shown) [Compound 1-17] | 0 | 40
18 | O=C(NO)C1CCc2cc(-c3ccc(F)cc3)ccc2O1 (stereo not shown) [Compound 1-18] | 0 | 68
19 | O=C(NO)C1CCc2cc(C#CCCC(=O)N3CCc4ccccc4C3)ccc2O1 (stereo not shown) [Compound 1-19] | 0 | 27
20 | O=C(NO)C1CCc2ccc(OCc3ccc(C(F)(F)F)cc3)cc2O1 (stereo not shown) [Compound 1-20] | 0 | 32
21 | O=C(NO)C1CCc2cc(-c3ccc(Cl)c(Cl)c3)ccc2O1 (stereo not shown) [Compound 1-21] | 0 | 73
22 | C[C@@H]1Cc2ccccc2O[C@@H]1C(=O)NO [Compound 1-22] | 0 | 0
23 | O=C(NO)C1CCc2cc(-c3ccc(-c4ccccc4)cc3)ccc2O1 (stereo not shown) [Compound 1-23] | 0 | 50
24 | O=C(NO)C1CCc2ccc(OCc3ccccn3)cc2O1 (stereo not shown) [Compound 1-24] | 0 | 23
25 | O=C(NO)C1CCc2ccc(OCCOc3ccc(F)cc3)cc2O1 (stereo not shown) [Compound 1-25] | 0 | 0

Row | Compound | PanHDAC at 1 uM (PanHDAC) | HDAC 6 at 50 nM (HDAC 6)
26 | O=C(Nc1ccc2c(c1)CC[C@@H](C(=O)NO)O2)c1cc(Cl)cc(Cl)c1 [Compound 1-26] | 0 | 20
27 | CN1CC(C(=O)NO)Oc2ccccc21 (stereo not shown) [Compound 1-27] | 0 | 31
28 | Cn1ccc2cc(-c3ccc4c(c3)CCC(C(=O)NO)O4)ccc21 (stereo not shown) [Compound 1-28] | 0 | 44
29 | CO[C@@H]1C[C@@H](C(=O)NO)Oc2ccccc21 [Compound 1-29] | 0 | 37
30 | CC(C)COC(=O)Nc1cccc2c1OC(C(=O)NO)CC2 (stereo not shown) [Compound 1-30] | 0 | 29
31 | O=C(NO)C1CCc2cccc(NS(=O)(=O)CC(F)(F)F)c2O1 (stereo not shown) [Compound 1-31] | 0 | 41
32 | COc1ccc(COC(=O)Nc2ccc3c(c2)CCC(C(=O)NO)O3)cc1 (stereo not shown) [Compound 1-32] | 14 | 70
33 | O=C(Nc1ccc2c(c1)CCC(C(=O)NO)O2)OCc1ccccc1Cl (stereo not shown) [Compound 1-33] | 0 | 32
34 | O=C(Nc1cccc2c1O[C@@H](C(=O)NO)CC2)OCc1ccccc1Cl [Compound 1-34] | 0 | 13
35 | O=C(NO)C1CCc2cccc(NS(=O)(=O)c3cccc4ccccc34)c2O1 (stereo not shown) [Compound 1-35] | 0 | 0
36 | O=C(NCCc1c[nH]c2ccccc12)Nc1cccc2c1OC(C(=O)NO)CC2 (stereo not shown) [Compound 1-36] | 0 | 6
37 | CS(=O)(=O)Nc1cccc2c1OC(C(=O)NO)CC2 (stereo not shown) [Compound 1-37] | 6 | 2
38 | Cc1ccc(S(=O)(=O)Nc2cccc3c2OC(C(=O)NO)CC3)cc1 (stereo not shown) [Compound 1-38] | 0 | 21
39 | O=C(NCc1cccc(S(F)(F)(F)(F)F)c1)Nc1cccc2c1OC(C(=O)NO)CC2 (stereo not shown) [Compound 1-39] | 0 | 34
40 | O=C(Nc1ccc(F)cc1)Nc1cccc2c1OC(C(=O)NO)CC2 (stereo not shown) [Compound 1-40] | 0 | 30
41 | O=C(Cc1c[nH]c2ccccc12)Nc1ccc2c(c1)CCC(C(=O)NO)O2 (stereo not shown) [Compound 1-41] | 0 | 55
42 | O=C(Nc1cccc2c1OC(C(=O)NO)CC2)OCc1ccc(C(F)(F)F)cc1 (stereo not shown) [Compound 1-42] | 0 | 14
43 | O=C(NCc1cccc(S(F)(F)(F)(F)F)c1)Nc1ccc2c(c1)CCC(C(=O)NO)O2 (stereo not shown) [Compound 1-43] | 0 | 34
44 | Cc1ccc(COc2ccc3c(c2)OC(C(=O)NO)CC3)cc1 (stereo not shown) [Compound 1-44] | 0 | 29
45 | O=C(COc1ccc(Cl)c(Cl)c1)Nc1cccc2c1OC(C(=O)NO)CC2 (stereo not shown) [Compound 1-45] | 0 | 0
46 | O=C(Nc1ccc(F)cc1)Nc1ccc2c(c1)CCC(C(=O)NO)O2 (stereo not shown) [Compound 1-46] | 0 | 48
47 | COc1ccccc1COc1ccc2c(c1)OC(C(=O)NO)CC2 (stereo not shown) [Compound 1-47] | 0 | 53
48 | O=C(NO)C1CCc2ccc(OCc3ccc(F)cc3)cc2O1 (stereo not shown) [Compound 1-48] | 0 | 0
49 | O=C(NO)C1CCc2ccc(OCCc3ccccc3)cc2O1 (stereo not shown) [Compound 1-49] | 0 | 0
50 | O=C(NO)C1CCc2ccc(OCc3ccc(Cl)cc3)cc2O1 (stereo not shown) [Compound 1-50] | 0 | 48
